In patent US10765114B2, “4-amino-6-(pyridyl and 2-substitutedphenyl)-picolinates and 6-amino-2-(pyridyl and 2-substitutedphenyl)-pyrimidine-4-carboxylates and their use as herbicides” (Dow AgroSciences LLC, priority 2013, dated 2020):

Tests used:
Assay in all cases: Pre-Emergent Test I
Assay type in all cases: in vivo
Settings in all cases: preemergence
[1] = test system: ECHSS (ECHCG: barnyardgrass (Echinochloa crus-galli))
Procedure: (§1) Pre-Emergent Test I Seeds of test species were planted into round plastic pots (5-inch diameter) containing sandy loam soil. After planting, all pots were sub-irrigated 16 h prior to compound application. Compounds were dissolved in a 97:3 v/v mixture of acetone and DMSO and diluted to the appropriate concentration in a final application solution containing water, acetone, isopropanol, DMSO and Agri-dex (crop oil concentrate) in a 59:23:15:1.0:1.5 v/v ratio and 0.02% w/v (weight/volume) of Triton X-155 to obtain the spray solution containing the highest application rate. Additional application rates were obtained by serial dilution of the high rate solution with the above application solution Formulated compound (2.7 mL) was pipetted evenly over the soil surface followed by incorporation with water (15 mL). Following treatment, pots were returned to the greenhouse for the duration of the experiment. The greenhouse was programmed for an approximate 15 h photoperiod which was maintained at about 23-29° C. during the day and 22-28° C. during the night. Nutrients and water were added on a regular basis through surface irrigation and supplemental lighting was provided with overhead metal halide 1000-Watt lamps as necessary. Herbicidal effect ratings were obtained 14 days after treatment. All evaluations were made relative to appropriate controls on a scale of 0 to 100 where 0 represents no herbicidal effect and 100 represents plant death or lack of emergence from the soil and presented in Table A. Some of the compounds tested, application rates employed, plant species tested, and results are given in Table 4.

[2] = test system: IPOSS (IPOHE: ivyleaf morningglory (Ipomoea hederecea))
Procedure: as §1

[3] = test system: SETFA: giant foxtail (Setaria faberi)
Procedure: as §1

[4] = test system: HELAN: sunflower (Helianthus annuus)
Procedure: as §1

[5] = test system: AMARE: redroot pigwseed (Amaranthus retroflexus)
Procedure: as §1

[6] = test system: AVEFA: wild oats (Avena fatua)
Procedure: as §1

Row | SMILES | Visual Growth Reduction (%) 14 Days After Application, ECHSS ([1]; 4 kg ai/ha) | Visual Growth Reduction (%) 14 Days After Application, IPOSS ([2]; 4 kg ai/ha) | Visual Growth Reduction (%) 14 Days After Application, SETFA ([3]; 4 kg ai/ha) | Visual Growth Reduction (%) 14 Days After Application, HELAN ([4]; 4 kg ai/ha) | Visual Growth Reduction (%) 14 Days After Application, AMARE ([5]; 4 kg ai/ha) | Visual Growth Reduction (%) 14 Days After Application, AVEFA ([6]; 4 kg ai/ha) | Visual Growth Reduction (%) 14 Days After Application, ECHSS ([1]; 3.8 kg ai/ha) | Visual Growth Reduction (%) 14 Days After Application, IPOSS ([2]; 3.8 kg ai/ha) | Visual Growth Reduction (%) 14 Days After Application, SETFA ([3]; 3.8 kg ai/ha) | Visual Growth Reduction (%) 14 Days After Application, HELAN ([4]; 3.8 kg ai/ha) | Visual Growth Reduction (%) 14 Days After Application, AMARE ([5]; 3.8 kg ai/ha) | Visual Growth Reduction (%) 14 Days After Application, AVEFA ([6]; 3.8 kg ai/ha)
1 | COC(=O)c1nc(-c2ccc(C(F)(F)F)nc2)cc(N)c1Cl [Compound 4] | F (30-44) | G (0-29) | F (30-44) | G (0-29) | D (60-74) | G (0-29) |  |  |  |  |  | 
2 | COC(=O)c1nc(-c2ccc(Cl)nc2F)cc(N)c1Cl [Compound 17, methyl 4-amino-5,6′-dichloro-2′-fluoro-[2,3′-bipyridine]-6-carboxylate] |  |  |  |  |  |  | F (30-44) | A (95-100) | G (0-29) | A (95-100) | A (95-100) | G (0-29)
